Experimental findings from patent publication US6548517B2, “Oxindole inhibitors of factor Xa” (Millennium Pharmaceuticals, Inc., priority 2000, dated 2003) are described below.

What all share (assay type): biochemical
One assay has as its target PLASMIN (Homo sapiens, UniProt P00747). The experiment in a line: plasmin protease inhibition assay.
The next assay relates to KALLIKREIN
The experiment in a line: kallikrein protease inhibition assay.

In another assay the target is prothrombinase complex (Homo sapiens, UniProt P00742). The experiment in a line: prothrombinase inhibition assay, plasma free system. The note with it: read-out: IIASE IC50. As for the experimental part: (§1) The compounds of the present invention are dissolved in buffer to give solutions containing concentrations such that assay concentrations range from 0 to 100 μM. In the assays for thrombin, prothrombinase and factor Xa, a synthetic chromogenic substrate is added to a solution containing test compound and the enzyme of interest and the residual catalytic activity of that enzyme is determined spectrophotometrically. The IC50 of a compound is determined from the substrate turnover. The IC50 is the concentration of test compound giving 50% inhibition of: the substrate turnover.
Chain of prothrombinase complex (P00742 235-488 limits assumed): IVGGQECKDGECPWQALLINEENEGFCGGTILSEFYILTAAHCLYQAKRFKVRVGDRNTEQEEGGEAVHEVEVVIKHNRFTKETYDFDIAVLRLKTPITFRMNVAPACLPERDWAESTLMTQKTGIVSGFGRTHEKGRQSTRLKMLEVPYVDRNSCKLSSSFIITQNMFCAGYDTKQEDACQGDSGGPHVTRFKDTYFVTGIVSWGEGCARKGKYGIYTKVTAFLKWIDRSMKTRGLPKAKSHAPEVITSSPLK
Chain of prothrombinase complex (P00742 41-179 limits assumed): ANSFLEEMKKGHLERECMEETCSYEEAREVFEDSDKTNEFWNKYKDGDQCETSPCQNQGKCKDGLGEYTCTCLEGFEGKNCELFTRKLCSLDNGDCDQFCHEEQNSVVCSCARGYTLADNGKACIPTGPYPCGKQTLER
Chain of prothrombinase complex (P12259 29-737 partner limits assumed): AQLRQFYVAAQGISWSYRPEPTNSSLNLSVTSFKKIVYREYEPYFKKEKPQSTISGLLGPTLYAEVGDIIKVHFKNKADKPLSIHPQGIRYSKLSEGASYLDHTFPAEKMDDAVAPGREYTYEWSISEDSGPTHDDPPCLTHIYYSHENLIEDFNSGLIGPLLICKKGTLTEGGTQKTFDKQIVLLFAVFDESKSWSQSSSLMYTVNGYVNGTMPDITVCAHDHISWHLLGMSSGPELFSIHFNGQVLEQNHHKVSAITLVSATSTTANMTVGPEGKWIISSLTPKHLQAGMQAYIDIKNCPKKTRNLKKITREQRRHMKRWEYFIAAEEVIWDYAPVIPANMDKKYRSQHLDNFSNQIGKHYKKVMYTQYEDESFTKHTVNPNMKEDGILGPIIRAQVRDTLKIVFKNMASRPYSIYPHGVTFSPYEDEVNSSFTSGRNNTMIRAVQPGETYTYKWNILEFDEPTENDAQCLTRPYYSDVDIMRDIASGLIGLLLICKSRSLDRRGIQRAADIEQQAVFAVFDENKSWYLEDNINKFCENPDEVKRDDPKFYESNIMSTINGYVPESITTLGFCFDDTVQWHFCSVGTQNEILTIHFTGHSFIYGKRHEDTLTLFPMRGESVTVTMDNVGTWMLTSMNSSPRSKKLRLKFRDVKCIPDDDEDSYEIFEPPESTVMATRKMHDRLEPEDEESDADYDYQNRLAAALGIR
Chain of prothrombinase complex (P12259 1574-2224 partner limits assumed): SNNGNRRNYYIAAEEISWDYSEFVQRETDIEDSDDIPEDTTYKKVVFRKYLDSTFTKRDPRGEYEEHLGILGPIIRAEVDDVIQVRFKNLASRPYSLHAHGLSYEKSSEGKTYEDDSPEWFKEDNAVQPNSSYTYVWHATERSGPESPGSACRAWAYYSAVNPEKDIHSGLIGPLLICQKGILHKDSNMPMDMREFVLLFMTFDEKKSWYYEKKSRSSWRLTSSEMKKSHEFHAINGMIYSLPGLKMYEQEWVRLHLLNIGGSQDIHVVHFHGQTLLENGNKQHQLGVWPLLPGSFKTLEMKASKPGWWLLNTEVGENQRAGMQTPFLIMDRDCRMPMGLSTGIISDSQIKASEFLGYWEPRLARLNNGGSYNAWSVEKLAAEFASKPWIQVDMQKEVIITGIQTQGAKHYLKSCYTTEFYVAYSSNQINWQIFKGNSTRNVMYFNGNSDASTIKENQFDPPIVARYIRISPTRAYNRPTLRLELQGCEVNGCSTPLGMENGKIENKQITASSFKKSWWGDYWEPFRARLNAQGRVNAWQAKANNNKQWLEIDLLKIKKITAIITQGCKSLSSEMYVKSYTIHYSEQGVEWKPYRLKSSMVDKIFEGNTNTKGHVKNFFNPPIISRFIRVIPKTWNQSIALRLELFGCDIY
The prothrombinase inhibition assay was performed in a plasma free system with modifications to the method described by Sinha, U. et al., Thromb. Res., 75, 427-436 (1994). Specifically, the activity of the prothrombinase complex was determined by measuring the time course of thrombin generation using the p-nitroanilide substrate Chromozym TH. The assay consists of preincubation (5 minutes) of selected compounds to be tested as inhibitors with the complex formed from factor Xa (0.5 nM), factor Va (2 nM), phosphatidyl serine:phosphatidyl choline (25:75, 20 μM) in 20 mM TrisHCI buffer, pH 7.5, containing 0.15 M NaCl, 5 mM CaCl2 and 0.1% bovine serum albumin. Aliquots from the complex-inhibitor mixture were added to prothrombin (1 nM) and Chromozym TH (0.1 mM). The rate of substrate cleavage was monitored at 405 nm for two minutes. Eight different concentrations of inhibitor were assayed in duplicate. A standard curve of thrombin generation by an equivalent amount of untreated complex was used for determination of percent inhibition.

The target in the next assay is T1, TRYPSIN (Bos taurus, UniProt P00760).
T1 construct: gene PRSS1
T1 sequence (P00760 24-246): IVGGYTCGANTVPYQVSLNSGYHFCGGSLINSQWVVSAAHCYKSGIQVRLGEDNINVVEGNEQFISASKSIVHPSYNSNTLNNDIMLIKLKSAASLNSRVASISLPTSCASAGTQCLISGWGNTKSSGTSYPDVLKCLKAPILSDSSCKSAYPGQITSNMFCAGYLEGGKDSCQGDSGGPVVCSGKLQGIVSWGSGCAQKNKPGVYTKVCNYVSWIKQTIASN
The experiment in a line: trypsin protease inhibition assay.

Another assay deals with TPA (Homo sapiens, UniProt P00750). The experiment in a line: TPA protease inhibition assay.
Chain of TPA (P00750 36-562, species assumed): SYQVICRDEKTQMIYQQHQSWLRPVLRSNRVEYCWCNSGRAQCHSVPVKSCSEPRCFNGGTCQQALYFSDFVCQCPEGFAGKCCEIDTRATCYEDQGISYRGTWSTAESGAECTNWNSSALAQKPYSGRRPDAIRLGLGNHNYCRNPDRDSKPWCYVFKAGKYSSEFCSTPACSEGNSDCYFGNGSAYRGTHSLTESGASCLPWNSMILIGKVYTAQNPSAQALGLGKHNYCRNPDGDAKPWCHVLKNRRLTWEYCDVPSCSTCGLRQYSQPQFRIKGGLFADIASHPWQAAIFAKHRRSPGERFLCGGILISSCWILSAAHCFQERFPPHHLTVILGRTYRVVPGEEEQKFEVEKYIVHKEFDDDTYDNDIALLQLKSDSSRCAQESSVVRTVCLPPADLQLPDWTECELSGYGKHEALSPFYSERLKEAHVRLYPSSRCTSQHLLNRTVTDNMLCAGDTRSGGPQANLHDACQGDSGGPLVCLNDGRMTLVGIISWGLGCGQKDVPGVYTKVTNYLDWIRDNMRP
The target of the next assay is APC (Homo sapiens, UniProt P04070). The experiment in a line: APC protease inhibition assay.
Chain of APC (P04070 212-461 limits assumed): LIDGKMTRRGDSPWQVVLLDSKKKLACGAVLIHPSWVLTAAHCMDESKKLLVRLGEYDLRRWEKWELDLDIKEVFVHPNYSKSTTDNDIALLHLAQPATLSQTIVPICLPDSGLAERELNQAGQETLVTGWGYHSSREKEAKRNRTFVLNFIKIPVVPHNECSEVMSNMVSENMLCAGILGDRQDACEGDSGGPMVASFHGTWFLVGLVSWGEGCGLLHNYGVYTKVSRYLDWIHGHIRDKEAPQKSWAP
Chain of APC (P04070 43-197 limits assumed): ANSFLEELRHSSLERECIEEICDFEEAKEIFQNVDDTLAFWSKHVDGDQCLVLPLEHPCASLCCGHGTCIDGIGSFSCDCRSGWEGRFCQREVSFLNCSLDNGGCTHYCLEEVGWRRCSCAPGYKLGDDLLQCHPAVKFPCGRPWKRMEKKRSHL
Another assay concerns the target T2, thrombin (Homo sapiens, UniProt P00734).
T2 construct: proteolytic cleavage of its precursor prothrombin at the Arg-Thr linkage at positions 271-272 and the Arg-Ile linkage at positions 320-321
The experiment in a line: thrombin amidolytic assay (Chromozym TH). Conditions: read-out: IIA IC50. On the procedure:
as §1
(§2) The factor Xa and thrombin assays were performed at room temperature, in 0.02 M TrisHCl buffer, pH 7.5, containing 0.15 M NaCl. The rates of hydrolysis of the para-nitroanilide substrate S-2765 (Chromogenix) for factor Xa, and the substrate Chromozym TH (Boehringer Mannheim) for thrombin following preincubation of the enzyme with inhibitor for 5 minutes at room temperature, and were determined using the Softmax 96-well plate reader (Molecular Devices), monitored at 405 nm to measure the time dependent appearance of p-nitroaniline.

Another assay has as its target factor Xa (Homo sapiens, UniProt P00742). The assay is described as follows: factor Xa amidolytic assay (chromogenic substrate S-2765). As for the experimental part: as §1, §2

SMILES strings stand for the structures.

Chain of factor Xa (P00742 235-488 limits assumed): as the sequence (P00742 235-488 limits assumed) above
Chain of factor Xa (P00742 41-179 limits assumed): as the sequence (P00742 41-179 limits assumed) above
Chain of PLASMIN (P00747 581-810 limits assumed, species assumed): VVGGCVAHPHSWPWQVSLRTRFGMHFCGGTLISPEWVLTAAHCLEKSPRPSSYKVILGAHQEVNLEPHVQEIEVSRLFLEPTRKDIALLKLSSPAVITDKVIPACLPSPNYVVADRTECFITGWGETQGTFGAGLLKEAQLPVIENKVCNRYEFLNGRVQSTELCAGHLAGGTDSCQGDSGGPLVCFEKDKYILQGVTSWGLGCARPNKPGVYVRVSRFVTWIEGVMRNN
Chain of PLASMIN (P00747 97-580 limits assumed, species assumed): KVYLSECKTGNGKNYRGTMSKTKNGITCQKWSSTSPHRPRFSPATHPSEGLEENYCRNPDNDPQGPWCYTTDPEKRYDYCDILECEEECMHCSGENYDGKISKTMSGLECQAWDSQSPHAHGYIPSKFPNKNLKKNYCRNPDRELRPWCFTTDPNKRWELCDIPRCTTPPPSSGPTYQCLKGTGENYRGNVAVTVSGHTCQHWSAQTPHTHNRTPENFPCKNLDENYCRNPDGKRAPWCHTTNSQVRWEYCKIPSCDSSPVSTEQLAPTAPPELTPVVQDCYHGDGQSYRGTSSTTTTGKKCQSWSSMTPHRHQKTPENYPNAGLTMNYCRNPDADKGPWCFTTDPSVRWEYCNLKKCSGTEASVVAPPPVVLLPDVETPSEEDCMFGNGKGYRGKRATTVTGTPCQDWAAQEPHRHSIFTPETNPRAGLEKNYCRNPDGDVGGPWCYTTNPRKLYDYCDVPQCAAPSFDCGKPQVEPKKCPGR

As for `CC(=N)N1CCC(Oc2ccc3c(c2)/C(=C/c2ccc(F)cc2)C(=O)N3Cc2ccc3ccc(C(=N)N)cc3c2)CC1` [Example 10], the IC50 (in general, the midpoint of a concentration-inhibition curve) on PLASMIN amounted to 407 nM; with KALLIKREIN, 201 nM; on prothrombinase complex, 19.3 nM; against TRYPSIN it was 10.4 nM; against TPA it was 38500 nM; at APC, 1550 nM. Further, the results for the half-maximal inhibitory concentration (IC50) at thrombin and against factor Xa were 20000 nM and 5.92 nM, respectively.

Regarding `CC(C)C1C(=O)N(Cc2ccc3ccc(C(=N)N)cc3c2)c2ccc(OC3CCN(C(=N)N)CC3)cc21` (stereo not shown) [Example 7], the 50% inhibitory concentration (IC50) is 734 nM on PLASMIN; 440 nM in the assay with KALLIKREIN; 116 nM at prothrombinase complex; 3.47 nM against TRYPSIN; 27900 nM against TPA; 549 nM against APC. Further, the concentration for half-maximal inhibition (IC50) on thrombin is 4260 nM; at factor Xa it was 28.4 nM.

With `CC(C)=C1C(=O)N(Cc2ccc3ccc(C(=N)N)cc3c2)c2ccc(OC3CCN(C(=N)N)CC3)cc21` [Example 6], the IC50 at PLASMIN stood at 880 nM; with KALLIKREIN, 304 nM; on prothrombinase complex, 19.8 nM; on TRYPSIN, 17.6 nM; on TPA, 28500 nM; at APC, 3060 nM. Also, the values for the IC50 on thrombin and on factor Xa were 19500 nM and 15.1 nM, respectively.

On to `CC1(C)C(=O)N(Cc2ccc3ccc(C(=N)N)cc3c2)c2ccc(OC3CCN(C(=N)N)CC3)cc21` [Example 5], for which the half-inhibitory concentration (IC50) at PLASMIN worked out at 1410 nM; with KALLIKREIN it was 535 nM; on prothrombinase complex, 264 nM; at TRYPSIN it was 6.39 nM; against TPA it was 19500 nM; at APC, 683 nM. Moreover, the results for the IC50 on thrombin and against factor Xa were 4530 nM and 72.5 nM, respectively.

As to `CC(=N)N1CCC(Oc2ccc3c(c2)/C(=C/c2ccccc2)C(=O)N3Cc2ccc3ccc(C(=N)N)cc3c2)CC1` [Example 9], the IC50 at PLASMIN came out at 319 nM; in the assay on KALLIKREIN it was 128 nM; on prothrombinase complex, 8.4 nM; against TRYPSIN, 8.1 nM; at TPA, 26600 nM; against APC it was 954 nM. Besides, the 50% inhibitory concentration (IC50) on thrombin was found to be 28000 nM; on factor Xa, 2.82 nM.

On to `CC(=N)N1CCC(Oc2ccc3c(c2)/C(=C/C(=O)O)C(=O)N3Cc2ccc3ccc(C(=N)N)cc3c2)CC1` [Example 12], for which the IC50 at PLASMIN was found to be 1250 nM; in the assay on KALLIKREIN, 2420 nM; at prothrombinase complex, 117 nM; on TRYPSIN it was 28.6 nM; at TPA, 62100 nM; at APC it was 6660 nM. The results for the IC50 on thrombin and at factor Xa were 240000 nM and 17.4 nM, respectively.

`CC(=N)N1CCC(Oc2ccc3c(c2)/C(=C/c2ccc(Cl)cc2)C(=O)N3Cc2ccc3ccc(C(=N)N)cc3c2)CC1` [Example 11]: the half-maximal inhibitory concentration (IC50) at PLASMIN worked out at 309 nM; in the assay with KALLIKREIN, 259 nM; at prothrombinase complex, 17.4 nM; against TRYPSIN it was 30.3 nM; on TPA it was 28700 nM; against APC it was 1480 nM. Further, the figures for the IC50 at thrombin and against factor Xa were 16100 nM and 5.76 nM, respectively.

Turning to `CC(=N)N1CCC(Oc2ccc3c(c2)C(C(C)C)C(=O)N3Cc2ccc3ccc(C(=N)N)cc3c2)CC1` (stereo not shown) [Example 8], the IC50 came to 628 nM at PLASMIN; 334 nM in the assay on KALLIKREIN; 36.3 nM on prothrombinase complex; 4.92 nM at TRYPSIN; 18100 nM at TPA; 389 nM against APC. Further, the IC50 was determined as 4710 nM at thrombin and 18.7 nM against factor Xa.

In the case of `CC(=N)N1CCC(Oc2ccc3c(c2)C(C)(C)C(=O)N3Cc2ccc3ccc(C(=N)N)cc3c2)CC1` [Example 4], the IC50 came out at 2210 nM against PLASMIN; 606 nM in the assay with KALLIKREIN; 163 nM on prothrombinase complex; 13.5 nM against TRYPSIN; 17900 nM at TPA; 848 nM against APC. The half-maximal inhibitory concentration (IC50) at thrombin was 6970 nM; on factor Xa it was 40.2 nM.

On to `CC(=N)N1CCC(Oc2ccc3c(c2)CC(=O)N3Cc2ccc3ccc(C(=N)N)cc3c2)CC1` [Example 1], for which the IC50 against PLASMIN came out at 2460 nM; in the assay on KALLIKREIN it was 307 nM; on prothrombinase complex it was 504 nM; at TRYPSIN, 62.1 nM; against TPA it was 18300 nM; on APC, 5180 nM. In addition, the IC50 at thrombin was found to be 72500 nM; on factor Xa it was 13 nM.

Turning to `CC(=N)N1CCC(Oc2ccc3c(c2)C(CC(=O)O)C(=O)N3Cc2ccc3ccc(C(=N)N)cc3c2)CC1` (stereo not shown) [Example 13], the IC50 at PLASMIN was determined as 2130 nM; with KALLIKREIN it was 1590 nM; at prothrombinase complex it was 90.4 nM; on TRYPSIN, 140 nM; against TPA, 37000 nM; against APC it was 9940 nM. In addition, the IC50 on thrombin worked out at 500000 nM; against factor Xa, 53.6 nM.
